Here are results for 35 molecules from US8034940B2, “Modulators of glucocorticoid receptor, AP-1, and/or NF-κB activity and use thereof” (Bristol-Myers Squibb Company, priority 2006, dated 2011).

The test concerns AP-1 induced transcriptional activity. The experiment in a line: Cellular Transrepressional Assay (AP-1 luciferase reporter, PMA-activated A549 cells). The test is classed as cell-based. The following applies: for AP-1 Max % inh (Cellular Transrepression Assay) / Emax: maximum inhibition; for Emax: A549, 7 h, read-out: AP-1 Max % inh (Cellular Transrepression Assay). An outline of the steps: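 Compounds tested from 0.1 nM to 40 μM during a 7 h PMA (10 ng/ml) stimulation of A549 cells stably transfected with 7× AP-1 sites driving luciferase. Repression expressed as % reduction of PMA-induced luminescence; EC50 by curve fitting.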
In general terms: A reporter such as luciferase makes a cellular process visible.

[1] abbreviates: Homo sapiens, Cellular Transrepression Assay.
Setting [2] is: Homo sapiens, A549, Cellular Transrepression Assay.

As to `CC(C)(C(=O)Nc1nncs1)[C@H]1c2ccccc2Oc2nc(-c3ccncc3)ccc21` [Example 219], under “Cellular Transrepression Assay”, the 50% effective concentration (EC50) (usually the concentration that produces a half-maximal response) worked out at 180 nM and the “AP-1 Max % inh (Cellular Transrepression Assay)” value (“AP-1 Max % inh” below) is recorded as 35.87%.

On to `CCCCCc1ccc(-c2ccc3c(n2)Oc2ccccc2C3C(C)(C)C(=O)Nc2nncs2)cc1` (stereo not shown) [Example 220], for which, for the setting “Cellular Transrepression Assay”, the EC50 was 105 nM and the “AP-1 Max % inh” value is recorded as 52.23%.

As to `CC(C)(C(=O)Nc1nncs1)[C@H]1c2ccccc2Oc2nc(-c3ccc(C4CCCCC4)cc3)ccc21` [Example 221], under “Cellular Transrepression Assay”, a half-maximal response (EC50) required 28.9 nM and the “AP-1 Max % inh” value amounted to 62.97%.

For `CCCCc1ccc(-c2ccc3c(n2)Oc2ccccc2C3C(C)(C)C(=O)Nc2nncs2)c(C)c1` (stereo not shown) [Example 222], where the note is “Cellular Transrepression Assay”, it took 100 nM to reach a half-maximal effect (EC50) and the “AP-1 Max % inh” value was 61.88%.

With `CC(C)(C(=O)Nc1nncs1)[C@H]1c2ccccc2Oc2nc(-c3ccc(O)c(F)c3)ccc21` [Example 223], where the note is “Cellular Transrepression Assay”, the response was half-maximal at 839 nM (EC50) and the “AP-1 Max % inh” value is on record as 27.87%.

Take `CC(C)(C(=O)Nc1nncs1)[C@H]1c2ccccc2Oc2nc(-c3cccc(F)c3)ccc21` [Example 225]: under “Cellular Transrepression Assay”, it took 920 nM to reach a half-maximal effect (EC50) and the “AP-1 Max % inh” value was 45.65%.

For `CCSc1ccc(-c2ccc3c(n2)Oc2ccccc2C3C(C)(C)C(=O)Nc2nncs2)cc1` (stereo not shown) [Example 226], for the setting “Cellular Transrepression Assay”, the half-maximal effective concentration (EC50) came to 18.1 nM and the “AP-1 Max % inh” value is 49.05%.

Turning to `CCS(=O)(=O)c1ccc(-c2ccc3c(n2)Oc2ccccc2C3C(C)(C)C(=O)Nc2nncs2)cc1` (stereo not shown) [Example 227], where the note is “Cellular Transrepression Assay”, the EC50 came out at 37.9 nM and the “AP-1 Max % inh” value came to 42.50%.

In the case of `CC(C)S(=O)(=O)c1ccc(-c2ccc3c(n2)Oc2ccccc2C3C(C)(C)C(=O)Nc2nncs2)cc1` (stereo not shown) [Example 228], for the setting “Cellular Transrepression Assay”, the EC50 was 51.5 nM and the “AP-1 Max % inh” value is 28.32%.

For the molecule `CC(=O)c1ccc(-c2ccc3c(n2)Oc2ccccc2C3C(C)(C)C(=O)Nc2nncs2)cc1F` (stereo not shown) [Example 229], where the note is “Cellular Transrepression Assay”, the EC50 stood at 42 nM and the “AP-1 Max % inh” value is listed as 39.34%.

Consider `CCCOc1ccc(-c2ccc3c(n2)Oc2ccccc2C3C(C)(C)C(=O)Nc2nncs2)cc1F` (stereo not shown) [Example 230], for which, for the setting “Cellular Transrepression Assay”, the EC50 came to 550 nM and the “AP-1 Max % inh” value came to 52.33%.

As to `CC(C)(C(=O)Nc1nncs1)C1c2ccccc2Oc2nc(-c3ccc(CC(=O)O)cc3)ccc21` (stereo not shown) [Example 231], where the note is “Cellular Transrepression Assay”, the concentration for a half-maximal effect (EC50) stood at 733 nM and the “AP-1 Max % inh” value was 38.36%.

In the case of `CCNS(=O)(=O)c1ccc(-c2ccc3c(n2)Oc2ccccc2C3C(C)(C)C(=O)Nc2nncs2)cc1` (stereo not shown) [Example 234], where the note is “Cellular Transrepression Assay”, the EC50 came out at 405 nM and the “AP-1 Max % inh” value is reported as 27.08%.

Regarding `COC(=O)Cc1ccc(-c2ccc3c(n2)Oc2ccccc2[C@@H]3C(C)(C)C(=O)Nc2nncs2)cc1` [Example 238], the Emax under setting [1] came to 62.3%. Besides, the EC50 under setting [2] came to 601 nM.

As for `CC(C)C(O)c1ccc(-c2ccc3c(n2)Oc2ccccc2[C@@H]3C(C)(C)C(=O)Nc2nncs2)cc1` (stereo partly shown) [Example 240], the Emax under setting [1] was 61.7%. Under setting [2], this molecule had an EC50 of 51.9 nM.

As to `C[S+]([O-])c1ccc(-c2ccc3c(n2)Oc2ccccc2[C@@H]3C(C)(C)C(=O)Nc2nncs2)cc1` (stereo partly shown) [Example 241], the Emax under setting [1] is 46.8%. Under setting [2], this molecule yielded a half-maximal effective concentration (EC50) of 25.3 nM.

In the case of `CC(C)Oc1ccc(-c2ccc3c(n2)Oc2ccccc2[C@@H]3C(C)(C)C(=O)Nc2nccs2)cc1F` [Example 246], the Emax under setting [1] was found to be 81.8%. The molecule also had an EC50 under setting [2] of 325 nM.

Regarding `CC(C)(C(=O)Nc1nncs1)[C@H]1c2ccccc2Oc2nc(-c3ccc(C(=O)N4CCCCC4)cc3)ccc21` [Example 247], the Emax under setting [1] came out at 52.4%. The molecule also gave a 50% effective concentration (EC50) under setting [2] of 4.74 nM.

With `CC(C)(C(=O)Nc1nncs1)[C@H]1c2ccccc2Oc2nc(-c3ccc(C(=O)N4CCCCC4)c(F)c3)ccc21` [Example 249], where the note is “Cellular Transrepression Assay”, the EC50 turned out to be 11.2 nM and the “AP-1 Max % inh” value came to 42.38%.

Consider `CN(C)C(=O)c1ccc(-c2ccc3c(n2)Oc2ccccc2[C@@H]3C(C)(C)C(=O)Nc2nncs2)cc1F` [Example 250], for which the Emax under setting [1] turned out to be 48.4%. In addition, the concentration for a half-maximal effect (EC50) under setting [2] turned out to be 17.8 nM.

As to `CCN(C)C(=O)c1ccc(-c2ccc3c(n2)Oc2ccccc2C3C(C)(C)C(=O)Nc2nncs2)cc1` (stereo not shown) [Example 251], where the note is “Cellular Transrepression Assay”, the EC50 came out at 17.4 nM and the “AP-1 Max % inh” value is 54.92%.

Consider `CC(C)(C(=O)Nc1nncs1)[C@H]1c2ccccc2Oc2nc(-c3ccc(C(=O)N4CCCC4)cc3)ccc21` [Example 252], for which, where the note is “Cellular Transrepression Assay”, it took 34.6 nM to reach a half-maximal effect (EC50) and the “AP-1 Max % inh” value came out at 60.94%.

As to `CCCN(C)C(=O)c1ccc(-c2ccc3c(n2)Oc2ccccc2C3C(C)(C)C(=O)Nc2nncs2)cc1` (stereo not shown) [Example 254], where the note is “Cellular Transrepression Assay”, the concentration giving a half-maximal response (EC50) was 23.6 nM and the “AP-1 Max % inh” value is reported as 41.80%.

For the molecule `CC(C)(C(=O)Nc1nncs1)[C@H]1c2ccccc2Oc2nc(-c3ccc(C(=O)N4CCOCC4)cc3)ccc21` [Example 257], under “Cellular Transrepression Assay”, a half-maximal response (EC50) required 12.4 nM and the “AP-1 Max % inh” value stood at 63.96%.

For `CC(C)N(C)C(=O)c1ccc(-c2ccc3c(n2)Oc2ccccc2C3C(C)(C)C(=O)Nc2nncs2)cc1` (stereo not shown) [Example 258], where the note is “Cellular Transrepression Assay”, a half-maximal response (EC50) required 534 nM and the “AP-1 Max % inh” value was 40.99%.

`CCN(CC)C(=O)c1ccc(-c2ccc3c(n2)Oc2ccccc2[C@@H]3C(C)(C)C(=O)Nc2nncs2)cc1F` [Example 259]: the Emax under setting [1] stood at 23.3%. Besides, the concentration for a half-maximal effect (EC50) under setting [2] turned out to be 72.2 nM.

On to `CN(C)C(=O)c1ccc(-c2ccc3c(n2)Oc2ccccc2[C@@H]3C(C)(C)C(=O)Nc2nncs2)cc1Cl` [Example 260], for which, under setting [1], the Emax was found to be 67.3%. Under setting [2], this molecule had an EC50 of 23.1 nM.

Turning to `CCN(CC)C(=O)c1ccc(-c2ccc3c(n2)Oc2ccccc2[C@@H]3C(C)(C)C(=O)Nc2nncs2)cc1Cl` [Example 263], the Emax under setting [1] is 58%. The molecule further registered an EC50 under setting [2] of 15.4 nM.

With `CC(C)(C(=O)Nc1nncs1)[C@H]1c2ccccc2Oc2nc(-c3ccc(C(=O)N4CCCCC4)c(Cl)c3)ccc21` [Example 264], where the note is “Cellular Transrepression Assay”, the midpoint of the response, the EC50, lay at 115 nM and the “AP-1 Max % inh” value amounted to 33.74%.

`CN(CCC#N)C(=O)c1ccc(-c2ccc3c(n2)Oc2ccccc2[C@@H]3C(C)(C)C(=O)Nc2nncs2)cc1` [Example 267]: under “Cellular Transrepression Assay”, a half-maximal response (EC50) required 569 nM and the “AP-1 Max % inh” value is on record as 40.78%.

Regarding `CC(=O)N1CCN(C(=O)c2ccc(-c3ccc4c(n3)Oc3ccccc3[C@@H]4C(C)(C)C(=O)Nc3nncs3)cc2)CC1` [Example 274], the Emax under setting [1] was 62.2%. The same molecule came in with a concentration for a half-maximal effect (EC50) under setting [2] of 234 nM.

With `CC(C)(C(=O)Nc1nncs1)[C@H]1c2ccccc2Oc2nc(-c3ccc(C(=O)N4CCC(F)(F)CC4)cc3)ccc21` [Example 300], under setting [1], the Emax came to 61.8%. Besides, under setting [2], the concentration giving a half-maximal response (EC50) was found to be 14.8 nM.

With `COC1CCN(C(=O)c2ccc(-c3ccc4c(n3)Oc3ccccc3[C@@H]4C(C)(C)C(=O)Nc3nncs3)cc2)CC1` [Example 309], under “Cellular Transrepression Assay”, the concentration for a half-maximal effect (EC50) came out at 41.5 nM and the “AP-1 Max % inh” value was found to be 34.95%.

For the molecule `CC(C)(C(=O)Nc1nncs1)[C@H]1c2ccccc2Oc2nc(-c3ccc(C(=O)N4CCS(=O)(=O)CC4)cc3)ccc21` [Example 310], the Emax under setting [1] was found to be 52.9%. Under setting [2], this molecule gave a concentration giving a half-maximal response (EC50) of 786 nM.

Take `CC(C)(C(=O)Nc1nncs1)[C@H]1c2ccccc2Oc2nc(-c3ccc(C(=O)N4CCC[C@@H]4C(N)=O)cc3)ccc21` [Example 312]: under setting [1], the Emax is 73.1%. The molecule also yielded an EC50 under setting [2] of 267 nM.
